Assay results from PubChem BioAssay (NCI).
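Test compounds were applied to cells in 96-well plates for 48 hours at 5 doses. GI50 marks 50% less growth. The concentration for full growth arrest is given as TGI.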

Key:
Assay in all cases: NCI anticancer screen, dose series, 48 h
HT29 colon = system: HT29 colon
RXF 393 renal = system: RXF 393 renal
SF-295 CNS = system: SF-295 CNS
DU-145 prostate = system: DU-145 prostate
UO-31 renal = system: UO-31 renal
ACHN renal = system: ACHN renal
LOX IMVI melanoma = system: LOX IMVI melanoma
NCI-H23 lung = system: NCI-H23 lung
HOP-62 NSCLC = system: HOP-62 NSCLC
SF-539 CNS = system: SF-539 CNS
SN12C renal = system: SN12C renal
SK-MEL-28 melanoma = system: SK-MEL-28 melanoma
OVCAR-8 ovarian = system: OVCAR-8 ovarian
M14 melanoma = system: M14 melanoma
SK-OV-3 ovarian = system: SK-OV-3 ovarian
COLO 205 colon = system: COLO 205 colon
A549 NSCLC = system: A549 NSCLC
OVCAR-3 ovarian = system: OVCAR-3 ovarian
NCI/ADR-RES ovarian = system: NCI/ADR-RES ovarian
MDA-MB-231 breast = system: MDA-MB-231 breast
IGROV1 ovarian = system: IGROV1 ovarian
HOP-92 NSCLC = system: HOP-92 NSCLC
CAKI-1 renal = system: CAKI-1 renal
786-0 renal = system: 786-0 renal
MCF7 breast = system: MCF7 breast
SNB-75 CNS = system: SNB-75 CNS
NCI-H226 lung = system: NCI-H226 lung
PC-3 prostate = system: PC-3 prostate
U251 CNS = system: U251 CNS
EKVX NSCLC = system: EKVX NSCLC
MALME-3M melanoma = system: MALME-3M melanoma
MDA-MB-435 = system: MDA-MB-435
HCT-116 colon = system: HCT-116 colon
SK-MEL-2 melanoma = system: SK-MEL-2 melanoma
SF-268 CNS = system: SF-268 CNS
BT-549 breast = system: BT-549 breast
CCRF-CEM leukemia = system: CCRF-CEM leukemia
SK-MEL-5 melanoma = system: SK-MEL-5 melanoma
K-562 leukemia = system: K-562 leukemia
KM12 colon = system: KM12 colon
TK-10 renal = system: TK-10 renal
OVCAR-4 ovarian = system: OVCAR-4 ovarian
HCT-15 colon = system: HCT-15 colon
MDA-N = system: MDA-N
A498 renal = system: A498 renal
SW-620 colon = system: SW-620 colon
UACC-257 melanoma = system: UACC-257 melanoma
OVCAR-5 ovarian = system: OVCAR-5 ovarian
MOLT-4 leukemia = system: MOLT-4 leukemia
HL-60(TB) leukemia = system: HL-60(TB) leukemia
NCI-H522 lung = system: NCI-H522 lung
NCI-H460 lung = system: NCI-H460 lung
SNB-19 CNS = system: SNB-19 CNS
UACC-62 melanoma = system: UACC-62 melanoma
HCC-2998 colon = system: HCC-2998 colon
HS 578T breast = system: HS 578T breast
T-47D breast = system: T-47D breast
SR leukemia = system: SR leukemia
RPMI-8226 leukemia = system: RPMI-8226 leukemia

## CCN(CC)c1nnc(CCCCCCCCc2nnc(N(CC)CC)o2)o1
HT29 colon
  TGI: > 100 µM
RXF 393 renal
  TGI: > 100 µM
SF-295 CNS
  TGI: > 100 µM
DU-145 prostate
  TGI: > 100 µM
UO-31 renal
  TGI: > 100 µM
ACHN renal
  TGI: > 100 µM
LOX IMVI melanoma
  TGI: > 100 µM
NCI-H23 lung
  TGI: > 100 µM
HOP-62 NSCLC
  TGI: > 100 µM
SF-539 CNS
  TGI: > 100 µM
SN12C renal
  TGI: > 100 µM
SK-MEL-28 melanoma
  TGI: > 100 µM
OVCAR-8 ovarian
  TGI: > 100 µM
M14 melanoma
  TGI: > 100 µM
SK-OV-3 ovarian
  TGI: > 100 µM
COLO 205 colon
  TGI: > 100 µM
A549 NSCLC
  TGI: > 100 µM
OVCAR-3 ovarian
  TGI: > 100 µM
NCI/ADR-RES ovarian
  TGI: > 100 µM
MDA-MB-231 breast
  TGI: > 100 µM
IGROV1 ovarian
  TGI: > 100 µM
HOP-92 NSCLC
  TGI: > 100 µM
CAKI-1 renal
  TGI: > 100 µM
786-0 renal
  TGI: > 100 µM
MCF7 breast
  TGI: > 100 µM
SNB-75 CNS
  TGI: > 100 µM
NCI-H226 lung
  TGI: > 100 µM
PC-3 prostate
  TGI: > 100 µM
U251 CNS
  TGI: > 100 µM
EKVX NSCLC
  TGI: > 100 µM
MALME-3M melanoma
  TGI: > 100 µM
MDA-MB-435
  TGI: > 100 µM
HCT-116 colon
  TGI: > 100 µM
SK-MEL-2 melanoma
  TGI: > 100 µM
SF-268 CNS
  TGI: > 100 µM
BT-549 breast
  TGI: > 100 µM
CCRF-CEM leukemia
  TGI: > 100 µM
SK-MEL-5 melanoma
  TGI: > 100 µM
K-562 leukemia
  TGI: > 100 µM
KM12 colon
  TGI: > 100 µM
TK-10 renal
  TGI: > 100 µM
OVCAR-4 ovarian
  TGI: > 100 µM
HCT-15 colon
  TGI: > 100 µM
MDA-N
  TGI: > 100 µM
A498 renal
  TGI: > 100 µM
SW-620 colon
  TGI: > 100 µM
UACC-257 melanoma
  TGI: > 100 µM
OVCAR-5 ovarian
  TGI: > 100 µM
MOLT-4 leukemia
  TGI: > 100 µM
HL-60(TB) leukemia
  TGI: > 100 µM
NCI-H522 lung
  TGI: > 100 µM
NCI-H460 lung
  TGI: > 100 µM
SNB-19 CNS
  TGI: > 100 µM

## NC(N)=NCCC(O)(P(=O)(O)O)P(=O)(O)O
RXF 393 renal
  TGI: > 100 µM
SF-295 CNS
  TGI: > 100 µM
DU-145 prostate
  TGI: > 100 µM
UO-31 renal
  TGI: > 100 µM
UACC-62 melanoma
  TGI: > 100 µM
ACHN renal
  TGI: > 100 µM
LOX IMVI melanoma
  TGI: > 100 µM
NCI-H23 lung
  TGI: > 100 µM
HOP-62 NSCLC
  TGI: > 100 µM
SF-539 CNS
  TGI: > 100 µM
M14 melanoma
  TGI: > 100 µM
SK-OV-3 ovarian
  TGI: > 100 µM
COLO 205 colon
  TGI: > 100 µM
A549 NSCLC
  TGI: > 100 µM
OVCAR-3 ovarian
  TGI: > 100 µM
NCI/ADR-RES ovarian
  TGI: > 100 µM
MDA-MB-231 breast
  TGI: > 100 µM
HCC-2998 colon
  TGI: > 100 µM
IGROV1 ovarian
  TGI: > 100 µM
CAKI-1 renal
  TGI: > 100 µM
786-0 renal
  TGI: > 100 µM
MCF7 breast
  TGI: > 100 µM
NCI-H226 lung
  TGI: > 100 µM
PC-3 prostate
  TGI: > 100 µM
EKVX NSCLC
  TGI: > 100 µM
MALME-3M melanoma
  TGI: > 100 µM
HCT-116 colon
  TGI: > 100 µM
SF-268 CNS
  TGI: > 100 µM
BT-549 breast
  TGI: > 100 µM
SK-MEL-5 melanoma
  TGI: > 100 µM
KM12 colon
  TGI: > 100 µM
TK-10 renal
  TGI: > 100 µM
HCT-15 colon
  TGI: > 100 µM
MDA-N
  TGI: > 100 µM
HS 578T breast
  TGI: 57.4 µM
UACC-257 melanoma
  TGI: > 100 µM
OVCAR-5 ovarian
  TGI: > 100 µM
NCI-H522 lung
  TGI: > 100 µM
NCI-H460 lung
  TGI: > 100 µM
SNB-19 CNS
  TGI: > 100 µM

## N/C(=N\OC(=O)c1ccccc1)C(Cc1ccccc1)C(=O)NOC(=O)c1ccccc1 (centres undefined)
HT29 colon
  GI50: 5.24 µM
  TGI: 18.5 µM
RXF 393 renal
  GI50: 1.97 µM
  TGI: 5.6 µM
SF-295 CNS
  GI50: 1.38 µM
  TGI: 3.1 µM
DU-145 prostate
  GI50: 1.58 µM
  TGI: 3.07 µM
UO-31 renal
  GI50: 1.45 µM
  TGI: 3.07 µM
UACC-62 melanoma
  GI50: 2.49 µM
  TGI: 7.53 µM
ACHN renal
  GI50: 1.66 µM
  TGI: 3.58 µM
LOX IMVI melanoma
  GI50: 1.46 µM
  TGI: 3.68 µM
NCI-H23 lung
  GI50: 3.54 µM
  TGI: 17.4 µM
HOP-62 NSCLC
  GI50: 1.37 µM
  TGI: 2.83 µM
SF-539 CNS
  GI50: 1.84 µM
  TGI: 3.99 µM
SN12C renal
  GI50: 3.39 µM
  TGI: 25.4 µM
SK-MEL-28 melanoma
  GI50: 7.76 µM
  TGI: 22.6 µM
OVCAR-8 ovarian
  GI50: 2.11 µM
  TGI: 6.53 µM
M14 melanoma
  GI50: 3.12 µM
  TGI: 10.8 µM
SK-OV-3 ovarian
  GI50: 5.48 µM
  TGI: 18.2 µM
COLO 205 colon
  GI50: 3.94 µM
  TGI: 14.7 µM
A549 NSCLC
  GI50: 1.52 µM
  TGI: 3.22 µM
OVCAR-3 ovarian
  GI50: 1.8 µM
  TGI: 4.1 µM
NCI/ADR-RES ovarian
  GI50: 2.72 µM
  TGI: 11.3 µM
MDA-MB-231 breast
  GI50: 4.6 µM
  TGI: 18.1 µM
HCC-2998 colon
  GI50: 5.4 µM
  TGI: 19.7 µM
IGROV1 ovarian
  GI50: 0.43 µM
  TGI: 2.09 µM
HOP-92 NSCLC
  GI50: 1.84 µM
  TGI: 3.63 µM
CAKI-1 renal
  GI50: 1.28 µM
  TGI: 2.97 µM
786-0 renal
  GI50: 3.04 µM
  TGI: 8 µM
MCF7 breast
  GI50: 2.78 µM
  TGI: 10.3 µM
SNB-75 CNS
  GI50: 1.62 µM
  TGI: 3.41 µM
NCI-H226 lung
  GI50: 3.51 µM
  TGI: 14 µM
PC-3 prostate
  GI50: 2.62 µM
  TGI: 7.2 µM
U251 CNS
  GI50: 1.36 µM
  TGI: 2.87 µM
EKVX NSCLC
  GI50: 2.23 µM
  TGI: 6.52 µM
MALME-3M melanoma
  GI50: 3.47 µM
  TGI: 14.8 µM
MDA-MB-435
  GI50: 1.76 µM
  TGI: 3.9 µM
HCT-116 colon
  GI50: 1.66 µM
  TGI: 3.38 µM
SK-MEL-2 melanoma
  GI50: 2.16 µM
  TGI: 4.17 µM
SF-268 CNS
  GI50: 1.64 µM
  TGI: 3.33 µM
T-47D breast
  GI50: 3.18 µM
  TGI: 15.8 µM
SR leukemia
  GI50: 1.08 µM
  TGI: 3.68 µM
BT-549 breast
  GI50: 4.26 µM
  TGI: 16.5 µM
CCRF-CEM leukemia
  GI50: 2.18 µM
  TGI: 6.07 µM
SK-MEL-5 melanoma
  GI50: 2.72 µM
  TGI: 9.03 µM
RPMI-8226 leukemia
  GI50: 1.74 µM
  TGI: 4.95 µM
K-562 leukemia
  GI50: 1.05 µM
  TGI: 3.42 µM
KM12 colon
  GI50: 2.19 µM
  TGI: 5.28 µM
TK-10 renal
  GI50: 2.12 µM
  TGI: 3.76 µM
OVCAR-4 ovarian
  GI50: 4.38 µM
  TGI: 27.3 µM
HCT-15 colon
  GI50: 2.21 µM
  TGI: 10.5 µM
A498 renal
  GI50: 11 µM
  TGI: 23.2 µM
HS 578T breast
  GI50: 0.952 µM
  TGI: 3.27 µM
SW-620 colon
  GI50: 3.02 µM
  TGI: 13.8 µM
UACC-257 melanoma
  GI50: 5.32 µM
  TGI: 18.5 µM
OVCAR-5 ovarian
  GI50: 9.1 µM
  TGI: 24.3 µM
MOLT-4 leukemia
  GI50: 2.21 µM
  TGI: 5.85 µM
HL-60(TB) leukemia
  GI50: 2.35 µM
  TGI: 6.56 µM
NCI-H522 lung
  GI50: 1.7 µM
  TGI: 3.47 µM
NCI-H460 lung
  GI50: 1.76 µM
  TGI: 3.71 µM
SNB-19 CNS
  GI50: 3.55 µM
  TGI: 15.6 µM
